Results taken from the supplement of paper PMC10307832.

The cell lines below were run with Cc1cnc(CNC(=O)c2c(=O)c3ccc(N4CCCN(C)CC4)nc3n3c2sc2ccccc23)cn1 [CX-5461] + CC(=O)c1c(C)c2cnc(Nc3ccc(N4CCNCC4)cn3)nc2n(C2CCCC2)c1=O [Palbociclib] (partner 0.5 µM) (assay: relative viability (nuclei count vs DMSO), 5 days (fraction); higher = more cells survive). Conditions: first compound 0.01 µM.
Summary of the method: (§1)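 Relative viability is defined as nuclei in treated wells over nuclei in vehicle wells. Duplicate plates were run and medians reported. Lung cancer cell lines in 1536-well plates were dosed by pin tool one day after seeding, with one drug or with a fixed anchor-drug dose plus five library-drug doses (not always all listed) in √10 steps, and nuclei were counted after 5 days.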

| Cell Line | relative viability |
| --- | --- |
| SW 900 | 0.533 |
| LU99A | 0.411 |
| BEN | 0.497 |
| HARA | 0.24 |
| HCC-78 | 0.503 |
| NCI-H322M | 0.471 |
| LCLC-97TM1 | 0.211 |
| NCI-H2009 | 0.214 |
| A-427 | 0.526 |
| NCI-H441 | 0.233 |
| NCI-H661 | 0.418 |
| NCI-H1734 | 0.325 |
| NCI-H460 | 0.221 |
| NCI-H2347 | 0.424 |
| SW 1573 | 0.343 |
| NCI-H1793 | 0.307 |
| 201T | 0.35 |
| NCI-H1915 | 0.542 |
| HCC-827 | 0.452 |
| LXF-289 | 0.596 |
| NCI-H23 | 0.48 |
| NCI-H647 | 0.413 |
| CAL-12T | 0.49 |
| NCI-H1651 | 0.455 |
| EPLC-272H | 0.309 |

Same assay, conditions: first compound 0.03162 µM

| Cell Line | relative viability |
| --- | --- |
| HOP-62 | 0.446 |
| HCC-44 | 1.05 |
| SW 900 | 0.538 |
| LU99A | 0.434 |
| BEN | 0.441 |
| HARA | 0.227 |
| HCC-78 | 0.453 |
| NCI-H322M | 0.457 |
| LCLC-97TM1 | 0.254 |
| NCI-H2009 | 0.201 |
| A-427 | 0.533 |
| NCI-H441 | 0.243 |
| NCI-H661 | 0.374 |
| NCI-H1734 | 0.391 |
| NCI-H460 | 0.0725 |
| NCI-H2347 | 0.437 |
| SW 1573 | 0.388 |
| NCI-H1793 | 0.306 |
| 201T | 0.344 |
| NCI-H1915 | 0.534 |
| HCC-827 | 0.529 |
| LXF-289 | 0.592 |
| NCI-H23 | 0.584 |
| NCI-H647 | 0.356 |
| CAL-12T | 0.511 |
| NCI-H1651 | 0.517 |
| EPLC-272H | 0.322 |

Same assay, conditions: first compound 0.1 µM

| Cell Line | relative viability |
| --- | --- |
| HOP-62 | 0.461 |
| HCC-44 | 0.969 |
| LU99A | 0.389 |
| BEN | 0.433 |
| HARA | 0.331 |
| HCC-78 | 0.444 |
| NCI-H322M | 0.503 |
| LCLC-97TM1 | 0.198 |
| NCI-H2009 | 0.272 |
| A-427 | 0.491 |
| NCI-H441 | 0.205 |
| NCI-H661 | 0.368 |
| NCI-H1734 | 0.34 |
| NCI-H460 | 0.0509 |
| NCI-H2347 | 0.427 |
| SW 1573 | 0.125 |
| NCI-H1793 | 0.345 |
| 201T | 0.363 |
| NCI-H1915 | 0.564 |
| HCC-827 | 0.538 |
| LXF-289 | 0.629 |
| NCI-H23 | 0.499 |
| NCI-H647 | 0.353 |
| CAL-12T | 0.448 |
| NCI-H1651 | 0.536 |
| EPLC-272H | 0.324 |

Same assay, conditions: first compound 0.3162 µM

| Cell Line | relative viability |
| --- | --- |
| HOP-62 | 0.413 |
| HCC-44 | 0.926 |
| SW 900 | 0.621 |
| LU99A | 0.322 |
| BEN | 0.5 |
| HARA | 0.228 |
| HCC-78 | 0.508 |
| NCI-H322M | 0.429 |
| LCLC-97TM1 | 0.208 |
| NCI-H2009 | 0.215 |
| A-427 | 0.329 |
| NCI-H441 | 0.203 |
| NCI-H661 | 0.367 |
| NCI-H1734 | 0.317 |
| NCI-H460 | 0.0722 |
| NCI-H2347 | 0.407 |
| SW 1573 | 0.371 |
| NCI-H1793 | 0.32 |
| 201T | 0.355 |
| NCI-H1915 | 0.53 |
| HCC-827 | 0.437 |
| NCI-H23 | 0.576 |
| NCI-H647 | 0.414 |
| CAL-12T | 0.347 |
| NCI-H1651 | 0.513 |

Same assay, conditions: first compound 1 µM

| Cell Line | relative viability |
| --- | --- |
| HOP-62 | 0.415 |
| HCC-44 | 0.953 |
| SW 900 | 0.519 |
| LU99A | 0.416 |
| BEN | 0.437 |
| HARA | 0.253 |
| HCC-78 | 0.429 |
| NCI-H322M | 0.434 |
| LCLC-97TM1 | 0.227 |
| NCI-H2009 | 0.16 |
| A-427 | 0.425 |
| NCI-H441 | 0.194 |
| NCI-H661 | 0.337 |
| NCI-H1734 | 0.292 |
| NCI-H460 | 0.0229 |
| NCI-H2347 | 0.404 |
| SW 1573 | 0.109 |
| NCI-H1793 | 0.283 |
| 201T | 0.35 |
| NCI-H1915 | 0.543 |
| HCC-827 | 0.582 |
| LXF-289 | 0.592 |
| NCI-H23 | 0.43 |
| NCI-H647 | 0.167 |
| CAL-12T | 0.121 |
| NCI-H1651 | 0.526 |
| EPLC-272H | 0.352 |

Each cell line was assayed with Cc1cnc(CNC(=O)c2c(=O)c3ccc(N4CCCN(C)CC4)nc3n3c2sc2ccccc23)cn1 [CX-5461] + N=C(N)NC(=N)NCCc1ccccc1 [Phenformin] (partner 250 µM) in the same assay as above. Conditions: first compound 0.01 µM.
Summary of the method: as §1

| Cell Line | relative viability |
| --- | --- |
| HOP-62 | 0.743 |
